# Experimental data as given in PubChem BioAssay (NCI).
#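 Exposure lasted 48 hours, with cells grown in 96-well plates and compounds tested at five concentrations. The concentration for full growth arrest is given as TGI.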
# Columns and labels:
# Assay in all cases: inhibition of tumour cell growth, NCI panel, 48 h
# NCI/ADR-RES ovarian = test system: NCI/ADR-RES ovarian
# SK-MEL-28 melanoma = test system: SK-MEL-28 melanoma
# MDA-MB-231 breast = test system: MDA-MB-231 breast
# SNB-75 CNS = test system: SNB-75 CNS
# U251 CNS = test system: U251 CNS
# CCRF-CEM leukemia = test system: CCRF-CEM leukemia
# NCI-H460 lung = test system: NCI-H460 lung
# HOP-92 NSCLC = test system: HOP-92 NSCLC
# SK-MEL-2 melanoma = test system: SK-MEL-2 melanoma
# TK-10 renal = test system: TK-10 renal
# SF-295 CNS = test system: SF-295 CNS
# OVCAR-3 ovarian = test system: OVCAR-3 ovarian
# K-562 leukemia = test system: K-562 leukemia
# SK-OV-3 ovarian = test system: SK-OV-3 ovarian
# PC-3 prostate = test system: PC-3 prostate
# OVCAR-4 ovarian = test system: OVCAR-4 ovarian
# RPMI-8226 leukemia = test system: RPMI-8226 leukemia
# SF-268 CNS = test system: SF-268 CNS
# MDA-MB-435 = test system: MDA-MB-435
# DU-145 prostate = test system: DU-145 prostate
SMILES,TGI (NCI/ADR-RES ovarian),TGI (SK-MEL-28 melanoma),TGI (MDA-MB-231 breast),TGI (SNB-75 CNS),TGI (U251 CNS),TGI (CCRF-CEM leukemia),TGI (NCI-H460 lung),TGI (HOP-92 NSCLC),TGI (SK-MEL-2 melanoma),TGI (TK-10 renal),TGI (SF-295 CNS),TGI (OVCAR-3 ovarian),TGI (K-562 leukemia),TGI (SK-OV-3 ovarian),TGI (PC-3 prostate),TGI (OVCAR-4 ovarian),TGI (RPMI-8226 leukemia),TGI (SF-268 CNS),TGI (MDA-MB-435),TGI (DU-145 prostate)
CC(C)(C)n1c(=O)n(-c2ccccc2)n(C(C)(C)C)c1=O,> 100 µM,> 100 µM,> 100 µM,> 100 µM,> 100 µM,> 100 µM,> 100 µM,> 100 µM,> 100 µM,> 100 µM,> 100 µM,> 100 µM,> 100 µM,> 100 µM,> 100 µM,> 100 µM,–,–,–,–
NCCCC(N=Cc1nc(-c2ccccc2)oc1O)C(=O)O (stereo not drawn),–,> 100 µM,–,> 100 µM,> 100 µM,> 100 µM,> 100 µM,> 100 µM,> 100 µM,> 100 µM,> 100 µM,> 100 µM,> 100 µM,> 100 µM,–,> 100 µM,> 100 µM,> 100 µM,–,–
O=C(/C=C/c1ccccc1)c1cc(C(=O)/C=C/c2ccccc2)c(O)cc1O,–,> 100 µM,–,–,–,–,> 100 µM,> 100 µM,> 100 µM,> 100 µM,–,–,–,> 100 µM,> 100 µM,–,> 100 µM,–,> 100 µM,–
CC(=O)O[C@H]1CC[C@H]2[C@@H]3CCC4=C/C(=N/OCCN(C)C)CC[C@]4(C)[C@H]3CC[C@]12C,27.8 µM,27.8 µM,39.5 µM,19.1 µM,26.4 µM,10.1 µM,20.4 µM,–,26.9 µM,27 µM,17.5 µM,26.7 µM,> 21.2 µM,24.6 µM,27.3 µM,23.5 µM,6.27 µM,27.5 µM,6.42 µM,31 µM
O=C(Cn1c2c(c3ccccc31)CCCC2)N1CCCCC1,> 100 µM,> 100 µM,–,–,–,–,> 100 µM,> 100 µM,> 100 µM,> 100 µM,> 100 µM,> 100 µM,–,> 100 µM,> 100 µM,> 100 µM,> 100 µM,–,> 100 µM,–
CNn1c(-c2ccc(C)cc2)n[nH]c1=O,> 100 µM,–,> 100 µM,–,> 100 µM,> 100 µM,> 100 µM,> 100 µM,> 100 µM,> 100 µM,> 100 µM,> 100 µM,> 100 µM,> 100 µM,> 100 µM,> 100 µM,> 100 µM,> 100 µM,> 100 µM,–
Cc1ccc2c(=O)c(-c3nnc(NC4CCCCC4)s3)c[nH]c2n1,> 100 µM,> 100 µM,> 100 µM,–,> 100 µM,> 100 µM,> 100 µM,–,> 100 µM,> 100 µM,> 100 µM,> 100 µM,> 100 µM,–,> 100 µM,> 100 µM,> 100 µM,> 100 µM,> 100 µM,> 100 µM
COc1cccc(/C=C2\SC(=S)N(/C=C3\C(=O)Oc4ccccc4C3=O)C2=O)c1O,> 100 µM,> 100 µM,> 100 µM,> 100 µM,> 100 µM,> 100 µM,> 100 µM,–,> 100 µM,–,> 100 µM,95.7 µM,> 100 µM,> 100 µM,> 100 µM,> 100 µM,80.3 µM,> 100 µM,75.6 µM,> 100 µM
CC(Cc1ccccc1)N(C)Cc1nc(C2CCC([N+](=O)[O-])O2)no1 (stereo not drawn),82.5 µM,25.6 µM,9.93 µM,23.1 µM,22.9 µM,44.8 µM,–,51.2 µM,–,28.4 µM,20.9 µM,–,–,84 µM,–,21.3 µM,72.8 µM,> 100 µM,20.4 µM,24.9 µM
CNC(=O)CCCNC(=O)CCCCC(=O)N(C)C,> 100 µM,> 100 µM,> 100 µM,–,> 100 µM,–,> 100 µM,–,> 100 µM,> 100 µM,> 100 µM,> 100 µM,> 100 µM,> 100 µM,> 100 µM,> 100 µM,> 100 µM,> 100 µM,> 100 µM,> 100 µM
O=c1[nH]nc(-c2ccccc2)n1-c1cccc([N+](=O)[O-])c1,> 100 µM,> 100 µM,> 100 µM,> 100 µM,> 100 µM,> 100 µM,> 100 µM,> 100 µM,> 100 µM,> 100 µM,> 100 µM,> 100 µM,> 100 µM,> 100 µM,–,> 100 µM,> 100 µM,> 100 µM,> 100 µM,> 100 µM
CN(C)CCNC(=O)c1cccc2c1Oc1cccc([N+](=O)[O-])c1O2,56.7 µM,38.9 µM,20.5 µM,40.5 µM,42.8 µM,89.8 µM,35.4 µM,–,49.3 µM,> 100 µM,36.7 µM,49.7 µM,45.5 µM,37.4 µM,29.8 µM,–,–,42.7 µM,32.6 µM,31.5 µM
O=C(O/N=c1/ccc(=O)/c(=N\OC(=O)c2ccccc2)c1=O)c1ccccc1,> 100 µM,> 100 µM,–,> 100 µM,> 100 µM,89.7 µM,> 100 µM,> 100 µM,–,> 100 µM,> 100 µM,> 100 µM,> 100 µM,> 100 µM,> 100 µM,> 100 µM,> 100 µM,> 100 µM,> 100 µM,–
Cc1ccc(C)n2c1nc1cc3ccccc3cc12,> 100 µM,> 100 µM,–,57.6 µM,> 100 µM,> 100 µM,–,> 100 µM,–,> 100 µM,> 100 µM,> 100 µM,> 100 µM,> 100 µM,> 100 µM,–,> 100 µM,> 100 µM,> 100 µM,> 100 µM
COc1cc2c(c(OC)c1OC)C(=O)[C@@H](O)[C@H]2NC(N)=O,> 100 µM,> 100 µM,> 100 µM,> 100 µM,> 100 µM,> 100 µM,> 100 µM,–,–,> 100 µM,> 100 µM,> 100 µM,> 100 µM,–,> 100 µM,–,> 100 µM,> 100 µM,> 100 µM,> 100 µM
COc1ccc(/C=N/N=C(\N)NO)cc1F,–,> 100 µM,–,89.5 µM,> 100 µM,> 100 µM,> 100 µM,76.2 µM,> 100 µM,> 100 µM,87.6 µM,> 100 µM,56.4 µM,> 100 µM,–,> 100 µM,> 100 µM,66.7 µM,–,–
COC(=O)CSc1nc2[nH]c(SC)c(C(N)=O)c2c(=O)n1-c1ccccc1,–,> 10 µM,> 10 µM,> 10 µM,–,> 10 µM,–,> 10 µM,–,> 10 µM,> 10 µM,–,> 10 µM,> 10 µM,> 10 µM,> 10 µM,> 10 µM,> 10 µM,> 10 µM,> 10 µM
O=NN1CCN=C1c1ccc([N+](=O)[O-])cc1,–,> 100 µM,–,> 100 µM,> 100 µM,–,> 100 µM,> 100 µM,–,> 100 µM,> 100 µM,> 100 µM,> 100 µM,> 100 µM,–,> 100 µM,> 100 µM,> 100 µM,–,–
CC(C)(C)[Si](C)(C)OCCc1ccccc1C1CC2(S(=O)(=O)c3ccccc3)ON1CC2S(=O)(=O)c1ccccc1 (stereo not drawn),> 100 µM,> 100 µM,> 100 µM,> 100 µM,> 100 µM,> 100 µM,> 100 µM,–,> 100 µM,> 100 µM,> 100 µM,> 100 µM,> 100 µM,> 100 µM,–,> 100 µM,–,> 100 µM,> 100 µM,> 100 µM
C=C1CCC2[C@](C)(CCC[C@]2(C)C(=O)O)[C@@H]1CCc1ccoc1 (stereo partly drawn),98.2 µM,> 100 µM,> 100 µM,> 100 µM,–,> 100 µM,> 100 µM,–,85 µM,74.7 µM,> 100 µM,66 µM,> 100 µM,> 100 µM,> 100 µM,> 100 µM,> 100 µM,> 100 µM,> 100 µM,> 100 µM
CN(/N=C/C=N/N(C)C1=NCCCN1)C1=NCCCN1,> 100 µM,> 100 µM,> 100 µM,> 100 µM,> 100 µM,> 100 µM,> 100 µM,> 100 µM,–,> 100 µM,> 100 µM,> 100 µM,> 100 µM,> 100 µM,> 100 µM,> 100 µM,–,> 100 µM,> 100 µM,–
COc1ccc(C(OCC2OC3(COC(c4ccccc4)(c4ccc(OC)cc4)c4ccc(OC)cc4)C(Oc4nc(=O)ccn43)C2O)(c2ccccc2)c2ccc(OC)cc2)cc1 (stereo not drawn),> 100 µM,> 100 µM,> 100 µM,–,> 100 µM,> 100 µM,–,–,> 100 µM,> 100 µM,> 100 µM,> 100 µM,> 100 µM,> 100 µM,> 100 µM,> 100 µM,> 100 µM,> 100 µM,> 100 µM,> 100 µM
O=C(Nc1ccc([N+](=O)[O-])cc1[N+](=O)[O-])C(=O)C(C(=O)c1ccc(Cl)c(Cl)c1)C1OC(=O)c2ccccc21 (stereo not drawn),–,–,–,> 100 µM,> 100 µM,95 µM,–,9.46 µM,–,93.7 µM,40.7 µM,93.1 µM,82 µM,82.5 µM,–,> 100 µM,> 100 µM,76.3 µM,–,–
Cc1c(NC(=O)CSC(=S)N(C)C)c(=O)n(-c2ccccc2)n1C,> 100 µM,> 100 µM,> 100 µM,> 100 µM,> 100 µM,> 100 µM,> 100 µM,–,> 100 µM,> 100 µM,> 100 µM,> 100 µM,> 100 µM,> 100 µM,> 100 µM,> 100 µM,> 100 µM,> 100 µM,> 100 µM,> 100 µM
COc1c2cc([N+](=O)[O-])cc1CN(C(=O)C(F)(F)F)CCOCCN(C(=O)C(F)(F)F)C2,–,> 100 µM,> 100 µM,> 100 µM,> 100 µM,> 100 µM,> 100 µM,> 100 µM,> 100 µM,> 100 µM,> 100 µM,> 100 µM,–,> 100 µM,> 100 µM,> 100 µM,–,> 100 µM,> 100 µM,> 100 µM
O=C1C[C@@H]2[C@@H](c3ccccc3)[C@@H]3C(=O)c4ccccc4NC(=O)[C@H]3[C@]2(O)c2ccccc2N1,–,> 100 µM,–,> 100 µM,> 100 µM,> 100 µM,> 100 µM,–,> 100 µM,> 100 µM,> 100 µM,> 100 µM,> 100 µM,–,–,> 100 µM,> 100 µM,> 100 µM,–,–
CC(C)=CCC/C(C)=C/Cc1c(O)c(C)cc2c1[nH]c1cc(O)ccc12,–,> 25 µM,–,–,> 25 µM,> 25 µM,> 25 µM,> 25 µM,> 25 µM,> 25 µM,–,> 25 µM,> 25 µM,> 25 µM,–,> 25 µM,> 25 µM,> 25 µM,–,–
C=CC(=O)Nc1ccccc1CC(c1c[nH]c2ccccc12)c1c[nH]c2ccccc12,–,32.1 µM,–,28.4 µM,–,54.2 µM,–,–,32.7 µM,59.1 µM,49.1 µM,32.6 µM,49.2 µM,45.7 µM,–,–,50.5 µM,43.1 µM,–,–
